Results as given in patent US20060069132A1, “Azolecarboxamide herbicides” (priority 2004, published 2006).

Key:
yellow nutsedge = assay: Test C pre-/postemergence herbicide test; format: in vivo, Cyperus esculentus; settings: for Nutsedge, Yellow plant response rating: 500 g ai/ha
In short: (§1)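 Visual injury scores run from 0 (no effect) to 100 (complete control), assessed relative to untreated controls 12 to 14 days after treatment in the greenhouse. Chemicals were formulated in a non-phytotoxic solvent mixture with surfactant and applied to soil after planting or to emerged plants at the 1- to 4-leaf stage.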

soybean = assay: Test C pre-/postemergence herbicide test; format: in vivo, Glycine max; settings: for Soybean plant response rating: 500 g ai/ha
In short: as §1

ducksalad = assay: Test C flooded paddy test; format: in vivo, Heteranthera limosa; settings: for Plant response rating, Ducksalad: 500 g ai/ha, visual rating after 12 to 14 days
Surinam grass = assay: Test C pre-/postemergence herbicide test; format: in vivo, Urochloa decumbens; settings: for Surinam Grass plant response rating: 500 g ai/ha
In short: as §1

giant foxtail = assay: Test C pre-/postemergence herbicide test; format: in vivo, Setaria faberi; settings: for Foxtail, Giant plant response rating: 500 g ai/ha
In short: as §1

eastern black nightshade = assay: Test C pre-/postemergence herbicide test; format: in vivo, Solanum ptycanthum; settings: for Plant response rating (0 = no effect, 100 = complete control), Nightshade: 62 g ai/ha; for Plant response rating (0 = no effect, 100 = complete control), Nightshade / Plant response rating, Nightshade: preemergence; for Plant response rating, Nightshade: visual, 12 to 14 days; for Nightshade plant response rating: Preemergence, 500 g ai/ha, scale 0 to 100, 0 no effect, 100 complete control
In short: as §1

corn = assay: Test C pre-/postemergence herbicide test; format: in vivo, Zea mays; settings: for Corn plant response rating: 500 g ai/ha
In short: as §1

lambsquarters = assay: Test C pre-/postemergence herbicide test; format: in vivo, Chenopodium album; settings: for Lambsquarters plant response rating: 500 g ai/ha
In short: as §1

[1] = system: smallflower umbrella sedge; assay: Test C flooded paddy test; format: in vivo, Cyperus difformis; settings: for Plant response rating, Sedge, Umbrella: 500 g ai/ha, visual rating after 12 to 14 days
barnyardgrass = assay: Test C flooded paddy test; format: in vivo, Echinochloa crus-galli; settings: for Plant response rating, Barnyardgrass: 500 g ai/ha, visual rating after 12 to 14 days
In short: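 Plants were grown to the 1- to 4-leaf stage (2–18 cm) and then treated postemergence, or grown to the 2-leaf stage for the flooded paddy test. They were held in a greenhouse for 12 to 14 days and then scored by eye against controls, where 0 is no effect and 100 is complete control.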

morningglory = assay: Test C pre-/postemergence herbicide test; format: in vivo, Ipomoea coccinea; parameters: key to Plant response rating, Morningglory: 0 = no effect, 100 = complete control; settings: for Morningglory plant response rating: 500 g ai/ha
In short: as §1

common ragweed = assay: Test C pre-/postemergence herbicide test; format: in vivo, Ambrosia elatior; parameters: key to Plant response rating, Ragweed: 0 = no effect, 100 = complete control; settings: for Ragweed plant response rating: 500 g ai/ha
In short: as §1

johnsongrass = assay: Test C pre-/postemergence herbicide test; format: in vivo, Sorghum halepense; settings: for Johnsongrass plant response rating: Preemergence, 500 g ai/ha
In short: as §1

[2] = 125 g ai/ha, scale 0 (no effect) to 100 (complete control), visual, 12 to 14 days, preemergence
[3] = Postemergence, 250 g ai/ha, scale 0 to 100, 0 no effect, 100 complete control
[4] = Preemergence, scale 0 to 100, 0 no effect, 100 complete control
[5] = postemergence, 125 g ai/ha, scale 0 to 100
[6] = postemergence, 62 g ai/ha, scale 0 to 100
[7] = 62 g ai/ha, scale 0 to 100 (0 no effect, 100 complete control)
[8] = 125 g ai/ha, scale 0 to 100 (0 no effect, 100 complete control)
[9] = 250 g ai/ha, scale of 0 to 100, 0 is no effect, 100 is complete control
[10] = scale 0 to 100 (0 no effect, 100 complete control)
[11] = 250 g ai/ha, scale 0 to 100 (0 no effect, 100 complete control), visual, 12 to 14 days, preemergence
[12] = 125 g ai/ha, scale 0 (no effect) to 100 (complete control)
[13] = 125 g ai/ha, scale of 0 to 100, 0 is no effect, 100 is complete control
[14] = scale 0 to 100, 0 no effect, 100 complete control

CCNC(=O)c1cccc(NC(=O)c2cc(C(C)(C)C)nn2CC)n1 [Compound 144]
Plant response rating (0 = no effect, 100 = complete control), Nutsedge, Yellow (yellow nutsedge; 62 g ai/ha, preemergence): 0
Plant response rating, Nutsedge, Yellow (yellow nutsedge; [2]): 0
Nutsedge, Yellow plant response rating (yellow nutsedge; Postemergence, scale 0 to 100): 0
Plant response rating, Nutsedge, Yellow (yellow nutsedge; [3]): 0
Nutsedge, Yellow plant response rating (yellow nutsedge; [4]): 40
Plant response rating, Nutsedge, Yellow (yellow nutsedge; [5]): 0
Plant response rating, Nutsedge, Yellow (yellow nutsedge; [6]): 0
Plant response rating (0 = no effect, 100 = complete control), Soybean (soybean; 62 g ai/ha, preemergence): 0
Plant response rating, Soybean (soybean; [2]): 40
Soybean plant response rating (soybean; Postemergence, scale 0 to 100): 90
Plant response rating, Soybean (soybean; [3]): 90
Soybean plant response rating (soybean; [4]): 80
Plant response rating, Soybean (soybean; [5]): 85
Plant response rating, Soybean (soybean; [6]): 70
Ducksalad plant response rating (ducksalad; [7]): 20
Ducksalad plant response rating (ducksalad; [8]): 50
Ducksalad plant response rating (ducksalad; [9]): 70
Plant response rating, Ducksalad (ducksalad; [10]): 80
Plant response rating (0 = no effect, 100 = complete control), Surinam Grass (Surinam grass; 62 g ai/ha, preemergence): 20
Plant response rating, Surinam Grass (Surinam grass; [2]): 40
Surinam Grass plant response rating (Surinam grass; Postemergence, scale 0 to 100): 40
Plant response rating, Surinam Grass (Surinam grass; [3]): 40
Surinam Grass plant response rating (Surinam grass; [4]): 70
Plant response rating, Surinam Grass (Surinam grass; [5]): 0
Plant response rating, Surinam Grass (Surinam grass; [6]): 0
Plant response rating (0 = no effect, 100 = complete control), Foxtail, Giant (giant foxtail; 62 g ai/ha, preemergence): 40
Plant response rating, Foxtail, Giant (giant foxtail; [2]): 70
Plant response rating, Foxtail, Giant (giant foxtail; [11]): 100
Foxtail, Giant plant response rating (giant foxtail; Postemergence, scale 0 to 100): 70
Plant response rating, Foxtail, Giant (giant foxtail; [3]): 50
Foxtail, Giant plant response rating (giant foxtail; [4]): 100
Plant response rating, Foxtail, Giant (giant foxtail; [5]): 10
Plant response rating, Foxtail, Giant (giant foxtail; [6]): 0
Plant response rating (0 = no effect, 100 = complete control), Nightshade (eastern black nightshade): 90
Plant response rating, Nightshade (eastern black nightshade; [12]): 100
Nightshade plant response rating (eastern black nightshade): 100
Plant response rating (0 = no effect, 100 = complete control), Corn (corn; 62 g ai/ha, preemergence): 0
Plant response rating, Corn (corn; [2]): 30
Plant response rating, Corn (corn; [11]): 40
Corn plant response rating (corn; Postemergence, scale 0 to 100): 30
Plant response rating, Corn (corn; [3]): 20
Corn plant response rating (corn; [4]): 50
Plant response rating, Corn (corn; [5]): 20
Plant response rating, Corn (corn; [6]): 10
Plant response rating (0 = no effect, 100 = complete control), Lambsquarters (lambsquarters; 62 g ai/ha, preemergence): 95
Plant response rating, Lambsquarters (lambsquarters; [2]): 95
Lambsquarters plant response rating (lambsquarters; Postemergence, scale 0 to 100): 100
Plant response rating, Lambsquarters (lambsquarters; [3]): 100
Lambsquarters plant response rating (lambsquarters; [4]): 100
Plant response rating, Lambsquarters (lambsquarters; [5]): 100
Plant response rating, Lambsquarters (lambsquarters; [6]): 100
Sedge, Umbrella plant response rating [1, 7]: 80
Sedge, Umbrella plant response rating [1, 8]: 80
Sedge, Umbrella plant response rating [1, 9]: 80
Plant response rating, Sedge, Umbrella [1, 10]: 90
Barnyardgrass plant response rating (barnyardgrass; [7]): 20
Barnyardgrass plant response rating (barnyardgrass; [13]): 20
Barnyardgrass plant response rating (barnyardgrass; [9]): 50
Plant response rating, Barnyardgrass (barnyardgrass; [10]): 60
Plant response rating (0 = no effect, 100 = complete control), Morningglory (morningglory; 62 g ai/ha, preemergence): 0
Plant response rating, Morningglory (morningglory; [2]): 30
Morningglory plant response rating (morningglory; Postemergence, scale 0 to 100): 80
Plant response rating, Morningglory (morningglory; [3]): 20
Morningglory plant response rating (morningglory; [4]): 90
Plant response rating, Morningglory (morningglory; [5]): 0
Plant response rating, Morningglory (morningglory; [6]): 0
Plant response rating (0 = no effect, 100 = complete control), Ragweed (common ragweed; 62 g ai/ha, preemergence): 0
Plant response rating, Ragweed (common ragweed; [2]): 30
Ragweed plant response rating (common ragweed; Postemergence, scale 0 to 100): 80
Plant response rating, Ragweed (common ragweed; [3]): 50
Ragweed plant response rating (common ragweed; [4]): 80
Plant response rating, Ragweed (common ragweed; [5]): 0
Plant response rating, Ragweed (common ragweed; [6]): 0
Plant response rating (0 = no effect, 100 = complete control), Johnsongrass (johnsongrass; 62 g ai/ha, preemergence): 0
Plant response rating, Johnsongrass (johnsongrass; [2]): 0
Plant response rating, Johnsongrass (johnsongrass; [3]): 10
Johnsongrass plant response rating (johnsongrass; [14]): 90
Plant response rating, Johnsongrass (johnsongrass; [5]): 0
Plant response rating, Johnsongrass (johnsongrass; [6]): 0

CCN1CCc2c(NC(=O)c3cc(C(C)(C)C)nn3CC)cccc2C1=O [Compound 63]
Plant response rating (0 = no effect, 100 = complete control), Nutsedge, Yellow (yellow nutsedge; 62 g ai/ha, preemergence): 0
Plant response rating, Nutsedge, Yellow (yellow nutsedge; [2]): 0
Plant response rating, Nutsedge, Yellow (yellow nutsedge; [11]): 0
Nutsedge, Yellow plant response rating (yellow nutsedge; [4]): 40
Plant response rating (0 = no effect, 100 = complete control), Soybean (soybean; 62 g ai/ha, preemergence): 0
Plant response rating, Soybean (soybean; [2]): 0
Plant response rating, Soybean (soybean; [11]): 10
Soybean plant response rating (soybean; [4]): 70
Ducksalad plant response rating (ducksalad; [7]): 0
Ducksalad plant response rating (ducksalad; [13]): 50
Ducksalad plant response rating (ducksalad; [9]): 70
Plant response rating, Ducksalad (ducksalad; [10]): 85
Plant response rating (0 = no effect, 100 = complete control), Surinam Grass (Surinam grass; 62 g ai/ha, preemergence): 0
Plant response rating, Surinam Grass (Surinam grass; [2]): 5
Plant response rating, Surinam Grass (Surinam grass; [11]): 45
Surinam Grass plant response rating (Surinam grass; [4]): 60
Plant response rating (0 = no effect, 100 = complete control), Foxtail, Giant (giant foxtail; 62 g ai/ha, preemergence): 0
Plant response rating, Foxtail, Giant (giant foxtail; [2]): 5
Plant response rating, Foxtail, Giant (giant foxtail; [11]): 10
Foxtail, Giant plant response rating (giant foxtail; [4]): 80
Plant response rating (0 = no effect, 100 = complete control), Nightshade (eastern black nightshade): 70
Plant response rating, Nightshade (eastern black nightshade; [12]): 90
Plant response rating, Nightshade (eastern black nightshade; 250 g ai/ha, scale 0 to 100 (0 no effect, 100 complete control)): 95
Nightshade plant response rating (eastern black nightshade): 95
Plant response rating (0 = no effect, 100 = complete control), Corn (corn; 62 g ai/ha, preemergence): 0
Plant response rating, Corn (corn; [2]): 0
Plant response rating, Corn (corn; [11]): 5
Corn plant response rating (corn; [4]): 30
Plant response rating (0 = no effect, 100 = complete control), Lambsquarters (lambsquarters; 62 g ai/ha, preemergence): 30
Plant response rating, Lambsquarters (lambsquarters; [2]): 95
Plant response rating, Lambsquarters (lambsquarters; [11]): 100
Lambsquarters plant response rating (lambsquarters; [4]): 100
Sedge, Umbrella plant response rating [1, 7]: 0
Sedge, Umbrella plant response rating [1, 13]: 70
Sedge, Umbrella plant response rating [1, 9]: 80
Plant response rating, Sedge, Umbrella [1, 10]: 90
Barnyardgrass plant response rating (barnyardgrass; [7]): 0
Barnyardgrass plant response rating (barnyardgrass; [13]): 0
Barnyardgrass plant response rating (barnyardgrass; [9]): 20
Plant response rating, Barnyardgrass (barnyardgrass; [10]): 50
Plant response rating (0 = no effect, 100 = complete control), Morningglory (morningglory; 62 g ai/ha, preemergence): 0
Plant response rating, Morningglory (morningglory; [2]): 40
Plant response rating, Morningglory (morningglory; [11]): 40
Morningglory plant response rating (morningglory; [4]): 40
Plant response rating (0 = no effect, 100 = complete control), Ragweed (common ragweed; 62 g ai/ha, preemergence): 0
Plant response rating, Ragweed (common ragweed; [2]): 0
Plant response rating, Ragweed (common ragweed; [11]): 10
Ragweed plant response rating (common ragweed; [4]): 95
Plant response rating (0 = no effect, 100 = complete control), Johnsongrass (johnsongrass; 62 g ai/ha, preemergence): 30
Plant response rating, Johnsongrass (johnsongrass; [2]): 60
Plant response rating, Johnsongrass (johnsongrass; [11]): 75
Johnsongrass plant response rating (johnsongrass; [14]): 100
